# Measurements reported in ChEMBL document CHEMBL4033746, “Synthesis, potential anti-inflammatory and analgesic activities study of (S)-N-substituted-1-phenyl-3,4-dihydroisoquinoline-2(1H)-carboxamides” (Bioorg Med Chem Lett, 2017).
# pIC50: −log10 of the molar value.
# Experiments:
# [1] = tested on: Mus musculus; assay: Analgesic activity in mouse at 100 mg/kg, ip measured after 60 mins at 58 degC by hot plate method; type: functional
# [2] = tested on: Mus musculus; assay: Anti-inflammatory activity in mouse model of xylene-induced ear edema assessed as inhibition of ear edema at 100 mg/kg, ip pre-treated before xylene injection and measured 1 hr post xylene injection relative to untreated control; type: functional
# [3] = tested on: Mus musculus; assay: Anti-inflammatory activity in mouse model of xylene-induced ear edema assessed as inhibition of ear edema at 10 to 30 mg/kg, ip pre-treated before xylene injection and measured 1 hr post xylene injection relative to untreated control; type: functional, organism-based
# [4] = tested on: Mus musculus; assay: Anti-inflammatory activity in mouse model of xylene-induced ear edema assessed as inhibition of ear edema at 30 mg/kg, ip pre-treated before xylene injection and measured 1 hr post xylene injection relative to untreated control; type: functional
# [5] = tested on: Mus musculus; assay: Analgesic activity in mouse at 10 mg/kg, ip measured after 60 mins at 58 degC by hot plate method; type: functional
# [6] = tested on: Mus musculus; assay: Anti-inflammatory activity in mouse model of xylene-induced ear edema assessed as inhibition of ear edema at 10 mg/kg, ip pre-treated before xylene injection and measured 1 hr post xylene injection relative to untreated control; type: functional
# [7] = target: T1, Prostaglandin G/H synthase 1 (Ovis aries, UniProt P05979); assay: Inhibition of ovine COX1
# T1 sequence (P05979 whole entry): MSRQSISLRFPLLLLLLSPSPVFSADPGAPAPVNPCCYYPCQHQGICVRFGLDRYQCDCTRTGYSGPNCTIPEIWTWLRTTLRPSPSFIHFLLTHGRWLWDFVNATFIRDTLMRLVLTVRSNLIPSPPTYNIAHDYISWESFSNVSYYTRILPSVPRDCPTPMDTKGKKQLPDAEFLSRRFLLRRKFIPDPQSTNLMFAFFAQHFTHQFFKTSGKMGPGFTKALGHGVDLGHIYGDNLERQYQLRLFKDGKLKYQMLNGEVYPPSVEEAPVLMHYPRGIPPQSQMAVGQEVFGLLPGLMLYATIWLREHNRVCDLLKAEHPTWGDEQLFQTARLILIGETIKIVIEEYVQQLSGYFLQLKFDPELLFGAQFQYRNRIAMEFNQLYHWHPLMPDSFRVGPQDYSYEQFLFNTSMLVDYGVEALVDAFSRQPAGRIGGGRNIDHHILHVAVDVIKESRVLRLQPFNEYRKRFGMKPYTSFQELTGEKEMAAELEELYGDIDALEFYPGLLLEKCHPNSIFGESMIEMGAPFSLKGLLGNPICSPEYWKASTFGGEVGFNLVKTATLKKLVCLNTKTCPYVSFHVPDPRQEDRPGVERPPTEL
# [8] = tested on: Mus musculus; assay: Anti-inflammatory activity in mouse model of xylene-induced ear edema assessed as inhibition of ear edema at 20 mg/kg, ip pre-treated before xylene injection and measured 1 hr post xylene injection relative to untreated control; type: functional
# [9] = tested on: Mus musculus; assay: Analgesic activity in mouse at 30 mg/kg, ip measured after 60 mins at 58 degC by hot plate method; type: functional
# [10] = tested on: Mus musculus; assay: Analgesic activity in mouse at 20 mg/kg, ip measured after 60 mins at 58 degC by hot plate method; type: functional
Structure (SMILES),Activity [1],inhibition in vivo at 100 mg/kg [2],inhibition [3],inhibition in vivo at 30 mg/kg [4],Activity [5],inhibition in vivo at 10 mg/kg [6],pIC50 [7],inhibition in vivo at 20 mg/kg [8],Activity [9],Activity [10]
COc1cccc(NC(=O)N2CCc3ccccc3[C@@H]2c2ccccc2)c1,94.6%,85.9%,–,–,–,–,–,–,–,–
O=C(N(c1ccccc1)c1ccccc1)N1CCc2ccccc2[C@@H]1c1ccccc1,73.3%,86.3%,–,–,–,–,–,–,–,–
Cc1cccc(NC(=O)N2CCc3ccccc3[C@@H]2c2ccccc2)c1,99.2%,86.4%,–,–,–,–,–,–,–,–
O=C(Nc1c(Cl)cccc1Cl)N1CCc2ccccc2[C@@H]1c1ccccc1,100%,92.7%,Dose-dependent effect,–,–,–,–,–,–,–
O=C(Nc1cccc(Cl)c1)N1CCc2ccccc2[C@@H]1c1ccccc1,100%,88%,–,–,–,–,–,–,–,–
O=C(Nc1ccccc1)N1CCc2ccccc2[C@@H]1c1ccccc1,100%,95%,Dose-dependent effect,74.7%,69.6%,60.3%,5.27,69.5%,87.2%,76.4%
O=C(Nc1cccc(F)c1)N1CCc2ccccc2[C@@H]1c1ccccc1,89.8%,84.9%,–,–,–,–,–,–,–,–
O=C(NCc1ccccc1)N1CCc2ccccc2[C@@H]1c1ccccc1,96.3%,77.4%,–,–,–,–,–,–,–,–
COc1ccc2c(c1)c(CC(=O)O)c(C)n2C(=O)c1ccc(Cl)cc1 [INDOMETHACIN],98.6%,–,–,–,73.7%,51 to 90.4%,–,–,–,–
O=C(Nc1cccc(Br)c1)N1CCc2ccccc2[C@@H]1c1ccccc1,89.8%,83.1%,–,61.2%,58.7%,44.2%,5.11,51.7%,80.2%,63.7%
